Laboratory results published in article PMC6494957 (Frontiers in Microbiology, 2019).
≈ marks a conversion by molar mass, not a printed value.

Tests used:
[1] = test system: tested pathogens (canine otitis externa isolates); assay: MIC, summary over canine otitis externa pathogens; assay type: cell-based
Description: Luria Bertani (LB) broth (Oxoid, Australia) was applied for MIC testing in lieu of cation-adjusted Mueller-Hinton broth as robenidine has been previously shown to chelate calcium ions. Furthermore, a twofold serial dilution of robenidine was performed in 100% DMSO, with 1 μl dispensed to each well due to the hydrophobicity of the compound ([Abraham et al., 2016]). The MIC for ampicillin or gentamicin against each isolate was determined for each test to serve as an internal quality control. The MICs of isolates were determined by visual reading and using an EnSpire Multimode Plate Reader 2300 atA600nm. […] Each well of the plate was inoculated with an aliquot of 10 μl bacterial suspension at a concentration of 1-5 × 10^6 colony forming units (CFU) per ml. Subsequently, the plate was incubated at 37°C for 24 h. The fractional inhibitory concentration index (FICI) described the results of the combinations, and was calculated utilizing the following formula: […]

[2] = test system: Acinetobacter spp.; assay: Checkerboard, summary for Acinetobacter spp.; assay type: cell-based; details: in the presence of EDTA and PMBN
Description: (§1) Briefly, antimicrobial stock solutions for robenidine and PMBN were prepared at a concentration of 12.8 mg/ml in DMSO. […] A 1 μl aliquot of the first compound from each combination was dispensed along the abscissa (from row A to G) of the 96-well microplate, while the second compound was dispensed along the ordinate (from column 12 to column 3) using an electronic multichannel pipette followed by 89 μl of LB broth. Each well of the plate was inoculated with an aliquot of 10 μl bacterial suspension at a concentration of 1-5 × 10^6 colony forming units (CFU) per ml. Subsequently, the plate was incubated at 37°C for 24 h. The fractional inhibitory concentration index (FICI) described the results of the combinations, and was calculated utilizing the following formula:
(§2) DRI = MIC of drug alone/MIC of drug in combination

[3] = test system: Gram-negative control strains; assay: Checkerboard, summary over Gram-negative strains; assay type: cell-based
Description: as §1, §2

[4] = test system: S. pneumoniae strains; parameters: method as in Abraham et al., 2016; Ogunniyi et al., 2017; details: ref Abraham et al., 2016, Ogunniyi et al., 2017; cited from earlier work
[5] = test system: clinical MRSA; parameters: method as in Abraham et al., 2016; Ogunniyi et al., 2017; details: ref Abraham et al., 2016, Ogunniyi et al., 2017; cited from earlier work
[6] = test system: S. aureus ATCC 29213; assay: MIC broth microdilution, quality control strain; assay type: cell-based; details: Staphylococcus aureus, ATCC29213; S. aureus ATCC 29213, quality control strain
Description: Luria Bertani (LB) broth (Oxoid, Australia) was applied for MIC testing in lieu of cation-adjusted Mueller–Hinton broth as robenidine has been previously shown to chelate calcium ions. Furthermore, a twofold serial dilution of robenidine was performed in 100% DMSO, with 1 μl dispensed to each well due to the hydrophobicity of the compound ([Abraham et al., 2016]). The MIC for ampicillin or gentamicin against each isolate was determined for each test to serve as an internal quality control. The MICs of isolates were determined by visual reading and using an EnSpire Multimode Plate Reader 2300 atA600nm.

[7] = test system: MDCK cell line; assay: In vitro cytotoxicity, WST-1; assay type: cell-based, canine; details: Canis lupus familiaris, 10% FBS, read-out: IC50, single agent
Description: (§3) Cells were maintained in Dulbecco’s modified Eagle’s medium (DMEM) with 10% fetal bovine serum (FBS) and 1% PenStrep (100 U/mL Penicillin and 100 μg/mL Streptomycin) at 37°C with 5% CO2. Cells were serially passaged at ∼80% confluence ∼ every 4 days. Assays were performed in duplicate in 96 well plates seeded with ∼25,000 cells per well. […] Briefly, the antimicrobials were prepared by performing a twofold serial dilution at 100× of tested concentration in DMSO. Subsequently, a 1 μl aliquot of each concentration was transferred to a sterile 96-well plate containing fresh DMEM with either 10% FBS. After mixing four times, the media aliquots with different concentrations of antimicrobial were transferred to each well of the 96-well plate seeded with cells, using wells containing 1–2% DMSO only as control. To determine the effect of FBS on the cytotoxicity of each compound, DMEM with 40% FBS containing different concentrations of antimicrobial was prepared as described above. After 24 h of exposure, WST-1 reagent (Cell Proliferation Assay reagent, Roche) at a concentration of 10% was added to each well. Absorbance at A450 nm on a Multiskan Ascent 354 Spectrophotometer (Labsystems) was measured after 1 h of incubation. The IC50 value was determined for each compound against each cell line via non-linear regression (three parameters) using GraphPad Prism v6 software.

[8] = test system: all the cell lines tested (HaCaT, HEK 293, MDCK); assay: cells
Description: as §3

SMILES	MIC values ([1]; Gram-positive bacteria: S. pseudintermedius and beta-haemolytic streptococci) [µg/mL]	MIC90 of robenidine ([1]; in the presence of EDTA, tested pathogens) [µg/mL]	fold reduction of robenidine MICs [2]	lowest robenidine concentration inhibiting growth ([3]; in combination with PMBN, Gram-negative ATCC strains of ESKAPE pathogens) [µg/mL]	DRIs of robenidine ([3]; in the presence of EDTA, Gram-negative control strains (Table 1))	DRIs of robenidine ([3]; in the presence of PMBN, Gram-negative control strains (Table 2))	MIC ([3]; in the presence of PMBN, Gram-negative pathogens, read-out: MIC of robenidine) [µg/mL]	DRIs of robenidine ([3]; in the presence of both EDTA and PMBN, all tested isolates (abstract))	fold increase in susceptibility ([3]; robenidine in combination with PMBN, Gram-negative ATCC strains of ESKAPE pathogens)	effective concentrations (MIC range) [4] [µg/mL]	effective concentrations (MIC range) [5] [µg/mL]	MIC [6] [µg/mL]	IC50 [7] [mM]	IC50 [8] [mM]
N=C(N/N=C/c1ccc(Cl)cc1)N/N=C/c1ccc(Cl)cc1 [ROB, robenidine]	1 to 16	0.5 to 4	8- to 32 fold	≥ 0.125	2- to 256 fold	8- to 256 fold	0.5 to 8	2- to 2048 fold	4- to 256 fold	2 to 8	1 to 2	2 (≈ 5.98 µM)	–	–
O=C(O)CN(CCN(CC(=O)O)CC(=O)O)CC(=O)O [EDTA, ethylenediaminetetraacetic acid]	–	–	–	–	–	–	–	–	–	–	–	–	3.4	3.4
